How the values were obtained:
LYN [1] = target: T1, LYN (Homo sapiens, UniProt P07948); test: MicroScale thermophoresis, supported by nanoDSF thermal shift; assay type: binding
T1 construct: recombinant human active protein kinase LYN (ProQinase, #0358-0000-1)

LYN [2] = target: T2, LYN (Mus musculus, UniProt P25911); test: in vitro kinase assay with immunoprecipitated LYN and GST-SH3P7 substrate; assay type: biochemical
T2 construct: LYN immunoprecipitated from unstimulated BMMCs

FYN = target: T3, FYN (Homo sapiens, UniProt P06241); test: MicroScale thermophoresis, supported by nanoDSF; assay type: binding
T3 construct: recombinant human active protein kinase FYN (ProQinase, #0352-0000-1)
T3 sequence (P06241 2-537): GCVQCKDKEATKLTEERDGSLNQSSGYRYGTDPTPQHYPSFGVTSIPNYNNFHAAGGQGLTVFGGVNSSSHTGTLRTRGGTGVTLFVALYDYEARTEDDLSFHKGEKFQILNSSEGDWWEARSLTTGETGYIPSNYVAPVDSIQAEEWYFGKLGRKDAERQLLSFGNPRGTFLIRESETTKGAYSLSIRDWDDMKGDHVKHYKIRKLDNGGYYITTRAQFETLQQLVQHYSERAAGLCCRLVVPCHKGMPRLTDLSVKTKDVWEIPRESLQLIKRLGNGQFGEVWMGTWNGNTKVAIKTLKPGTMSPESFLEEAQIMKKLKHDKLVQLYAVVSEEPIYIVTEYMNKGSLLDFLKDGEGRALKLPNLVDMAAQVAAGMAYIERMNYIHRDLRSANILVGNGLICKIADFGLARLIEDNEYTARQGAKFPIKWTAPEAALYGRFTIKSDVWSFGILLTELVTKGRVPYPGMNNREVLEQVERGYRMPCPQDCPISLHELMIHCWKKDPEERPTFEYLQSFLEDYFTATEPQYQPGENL

T1 sequence (P07948 2-512): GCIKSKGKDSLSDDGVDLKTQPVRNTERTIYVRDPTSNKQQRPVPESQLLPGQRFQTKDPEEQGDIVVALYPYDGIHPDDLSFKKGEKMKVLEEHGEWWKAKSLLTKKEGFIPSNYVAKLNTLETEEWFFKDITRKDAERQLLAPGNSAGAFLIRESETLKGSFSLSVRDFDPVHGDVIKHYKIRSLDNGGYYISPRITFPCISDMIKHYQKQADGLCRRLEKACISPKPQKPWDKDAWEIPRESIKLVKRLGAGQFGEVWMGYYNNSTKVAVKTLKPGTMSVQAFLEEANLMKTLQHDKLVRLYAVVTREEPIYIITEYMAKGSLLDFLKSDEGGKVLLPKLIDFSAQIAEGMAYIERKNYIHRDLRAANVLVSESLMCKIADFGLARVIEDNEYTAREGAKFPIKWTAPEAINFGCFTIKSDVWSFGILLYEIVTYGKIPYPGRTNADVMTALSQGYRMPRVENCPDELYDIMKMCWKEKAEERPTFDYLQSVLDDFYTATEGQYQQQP
T2 sequence (P25911 2-512): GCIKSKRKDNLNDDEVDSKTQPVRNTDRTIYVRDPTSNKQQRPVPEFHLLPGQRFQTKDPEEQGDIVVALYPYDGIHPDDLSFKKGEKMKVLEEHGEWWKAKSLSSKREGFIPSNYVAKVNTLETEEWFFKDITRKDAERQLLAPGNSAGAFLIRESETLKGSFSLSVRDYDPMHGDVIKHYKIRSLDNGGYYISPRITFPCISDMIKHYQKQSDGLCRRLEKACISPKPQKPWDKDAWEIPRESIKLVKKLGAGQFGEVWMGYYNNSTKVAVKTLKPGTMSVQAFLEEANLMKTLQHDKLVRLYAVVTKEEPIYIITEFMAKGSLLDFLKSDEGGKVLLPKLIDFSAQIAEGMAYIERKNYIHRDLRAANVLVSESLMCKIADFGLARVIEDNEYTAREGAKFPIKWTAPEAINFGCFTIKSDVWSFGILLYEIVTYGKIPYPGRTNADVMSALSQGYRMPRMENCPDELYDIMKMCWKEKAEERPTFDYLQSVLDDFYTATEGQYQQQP

CC(C)(C)c1nc(-c2ccc(NC(=O)Nc3cccc(C(F)(F)F)c3)c3ccccc23)c2c(N)nccn12 [KIRA6] showed a Kd (LYN [1]) of 3.2 ± 1.2 µM, an IC50 (LYN [2]) of ~0.3 µM and a Kd (FYN) of 8.4 ± 2.6 µM.
